Assay results published in publication PMC5628579, “Potent mechanism-based sirtuin-2-selective inhibition by an in situ-generated occupant of the substrate-binding site, “selectivity pocket” and NAD^+-binding site” (Chemical Science, 2017).

Tests used:
[1] = tested on: acetylated α-tubulin (SIRT2 substrate); test: Western blot of acetylated α-tubulin in MDA-MB-231 cells; format: cell-based, human; conditions: 20 μM, 6 h
Description: (§1) MCF-7 and MDA-MB-231 cells were plated in 96-well plates (initial density: 1 × 10^3 cells per well) and incubated at 37 °C. After 24 h, test compound solutions (50 μL/well) of varying concentrations in medium (DMEM and Leibovitz's L-15 for MCF-7 and MDA-MB-231 cells respectively) for were added to the cells at 37 °C under 5% CO2 in air and left to react for 72 h. Thereafter, the mixtures were treated with 10 μL of AlamarBlue® (AbD Serotec, #BUF012A), incubation was continued at 37 °C for 3 h. The fluorescence in each well was measured with an ARVOTM X3 microplate reader (λex = 540 nm; λem = 590 nm). With the obtained fluorescence readings, it was possible to calculate the percentage of cell growth.
(§2) MDA-MB-231 cells (5 × 10^5 cells/2 mL/dish) were treated for 6 h with the test compounds at the indicated concentrations in the cell culture medium, before the cells were collected and extracted with SDS buffer. The protein concentrations of the lysates were determined using a BCA protein assay.
(§3) Equivalent amounts of protein from each lysate were resolved in 5–20% SDS-polyacrylamide gels and transferred onto PVDF membranes. […]
(§4) For the differentiation study, the medium was changed to DMEM supplemented with 2% FBS. After incubation with or without 36 for 72 h, the cell morphology was examined using a microscope (Olympus CKX41) and further analyzed with the Photomeasure software (Kenis Ltd.). […]

H3K9Ac (SIRT1 substrate) = test: Western blot of H3K9Ac in MDA-MB-231 cells; format: cell-based, human; conditions: 6 h
Description: as §1, §2, §3, §4

SIRT3 = biological target: T1, SIRT3 (Homo sapiens, UniProt Q9NTG7); test: Fluor de Lys SIRT3 assay
T1 sequence (Q9NTG7 1-399): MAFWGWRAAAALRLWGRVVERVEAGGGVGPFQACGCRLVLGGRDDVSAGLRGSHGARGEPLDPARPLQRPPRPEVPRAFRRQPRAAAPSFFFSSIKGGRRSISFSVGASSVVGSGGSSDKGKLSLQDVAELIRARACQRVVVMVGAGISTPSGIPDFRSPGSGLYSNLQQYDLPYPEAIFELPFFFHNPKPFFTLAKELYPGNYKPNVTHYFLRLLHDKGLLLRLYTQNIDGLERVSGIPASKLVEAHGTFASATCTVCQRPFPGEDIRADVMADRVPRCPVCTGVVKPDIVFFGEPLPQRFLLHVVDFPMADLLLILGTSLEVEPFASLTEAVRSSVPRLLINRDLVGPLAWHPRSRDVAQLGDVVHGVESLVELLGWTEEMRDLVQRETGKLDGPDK

SIRT5 = biological target: T2, SIRT5 (Homo sapiens, UniProt Q9NXA8); test: Fluor de Lys SIRT5 assay
T2 sequence (Q9NXA8 37-310): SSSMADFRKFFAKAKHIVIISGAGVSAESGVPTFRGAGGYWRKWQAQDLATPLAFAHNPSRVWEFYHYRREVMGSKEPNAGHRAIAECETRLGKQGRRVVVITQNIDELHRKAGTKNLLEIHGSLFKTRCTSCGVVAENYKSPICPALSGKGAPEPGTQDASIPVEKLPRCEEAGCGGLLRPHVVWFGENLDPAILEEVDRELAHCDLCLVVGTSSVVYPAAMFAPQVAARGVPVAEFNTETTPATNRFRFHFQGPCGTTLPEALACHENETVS

SIRT1 = biological target: T3, SIRT1 (Homo sapiens, UniProt Q96EB6); test: Fluor de Lys SIRT1 assay
T3 sequence (Q96EB6 1-747): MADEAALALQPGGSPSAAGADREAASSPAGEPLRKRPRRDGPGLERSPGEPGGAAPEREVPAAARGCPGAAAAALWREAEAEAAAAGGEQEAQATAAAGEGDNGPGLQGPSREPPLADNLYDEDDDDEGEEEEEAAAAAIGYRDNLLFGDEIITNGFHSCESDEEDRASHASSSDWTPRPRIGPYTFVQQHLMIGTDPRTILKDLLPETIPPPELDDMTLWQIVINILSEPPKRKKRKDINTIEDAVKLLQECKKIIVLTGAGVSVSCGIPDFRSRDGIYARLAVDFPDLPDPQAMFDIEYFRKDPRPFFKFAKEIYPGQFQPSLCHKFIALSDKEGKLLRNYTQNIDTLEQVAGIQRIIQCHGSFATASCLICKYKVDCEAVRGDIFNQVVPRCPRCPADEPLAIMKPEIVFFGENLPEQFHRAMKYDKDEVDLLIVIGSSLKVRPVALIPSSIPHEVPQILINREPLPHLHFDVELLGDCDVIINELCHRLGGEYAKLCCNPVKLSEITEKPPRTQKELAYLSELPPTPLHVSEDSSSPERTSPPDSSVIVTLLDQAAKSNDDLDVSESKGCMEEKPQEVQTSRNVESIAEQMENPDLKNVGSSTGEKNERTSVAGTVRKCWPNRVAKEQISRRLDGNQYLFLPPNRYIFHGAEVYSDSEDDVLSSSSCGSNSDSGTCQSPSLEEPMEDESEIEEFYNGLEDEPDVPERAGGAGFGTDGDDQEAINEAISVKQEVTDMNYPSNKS

neuro-2a (N2a) cells = test: Neurite outgrowth assay; format: cell-based, mouse; conditions: 72 h, vehicle 14.22 ± 2.9%

**Q.** For `C[C@H](NC(=O)[C@H](CCCCNC(=S)CNC(=O)c1ccccc1Nc1cccc(OCCc2ccccc2)c1)NC(=O)OCc1ccccc1)C(N)=O` [Compound 36], which “acetylated α-tubulin level (western blot)” value [1] is on record?
**A.** induced the accumulation of acetylated α-tubulin

**Q.** And the “H3K9Ac level (western blot)” value (H3K9Ac (SIRT1 substrate))?
**A.** did not upregulate

**Q.** And the IC50 (SIRT3)?
**A.** 9.49 ± 1.7 µM

**Q.** What about the inhibition at 1 µM (SIRT3; read-out: % inhibition at 1 μM SIRT3) of the same compound?
**A.** 2 ± 1.8%

**Q.** What about the inhibition at 10 µM (SIRT5; read-out: % inhibition at 10 μM SIRT5) of the same compound?
**A.** 4 ± 2.6%

**Q.** What about the inhibition at 50 µM (SIRT5; read-out: % inhibition at 50 μM SIRT5) of the same compound?
**A.** 10%

**Q.** What about the IC50 (SIRT1) of the same compound?
**A.** 1.56 ± 0.06 µM

**Q.** And the inhibition at 1 µM (SIRT1; read-out: % inhibition at 1 μM SIRT1)?
**A.** 29.5 ± 2.1%

**Q.** And the “percentage of differentiated cells” value (neuro-2a (N2a) cells; 0.5 μM)?
**A.** 23.09 ± 3.21%

**Q.** What about the “percentage of differentiated cells” value (neuro-2a (N2a) cells; 1 μM) of the same compound?
**A.** 25.73 ± 1.3%
